This note sets out measurements from patent publication US8906928B2, “Substituted pyrazolo-pyrrolo-pyridine-dione compounds” (ArQule, Inc., priority 2009, dated 2014).

One data set concerns DLD-1. The data set is described as follows: MTS assay (cell growth inhibition), DLD-1. It counts as cell-based. The note with it: DLD-1 cells, 72 hours incubation with test compound; concentration not given. The gist of the method:
(§1)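 First, seed 3000 cells per well in low-serum (1% FBS) DMEM and culture 18 h. Next, add compounds prepared at 300× in DMSO and diluted 1:40 in DMEM; incubate 72 h. Finally, add MTS/PMS for 4 h and measure absorbance at 492 nm.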
Background: Formazan colour is commonly taken as a measure of viable cells.

The next data set deals with Kato III. The data set is described as follows: MTS assay (cell growth inhibition), Kato III. It is filed as cell-based. The note with it: Kato III cells, 72 hours incubation with test compound; concentration not given. The gist of the method:
as §1

The next data set concerns MDA-MB. Put plainly: MTS assay (cell growth inhibition), MDA-MB. It counts as cell-based. Particulars: MDA-MB cells, 72 hours incubation with test compound; concentration not given. The gist of the method:
as §1

The subject of another data set is NCI-H1299. The data set is described as follows: MTS assay (cell growth inhibition), NCI-H1299. It is filed as cell-based. Particulars: NCI-H1299 cells, 72 hours incubation with test compound; concentration not given. The gist of the method: as §1
The next data set deals with PACA-2. The data set is described as follows: MTS assay (cell growth inhibition), PACA-2. It counts as cell-based. Particulars: PACA-2 cells, 72 hours incubation with test compound; concentration not given. The gist of the method: as §1
A further data set deals with PC-3. Put plainly: MTS assay (cell growth inhibition), PC-3. It is filed as cell-based. Particulars: PC-3 cells, 72 hours incubation with test compound; concentration not given. The gist of the method: as §1

The term melting point denotes the temperature of the solid-liquid transition. Take `Cc1ccc(-c2ccccc2CN2C(=O)c3cnc4[nH]ncc4c3C2=O)cc1F` [Example 146, 7-[(3′-fluoro-4′-methylbiphenyl-2-yl)methyl]pyrazolo[3,4-b]pyrrolo[3,4-d]pyridine-6,8(3H,7H)-dione]: the melting point lay in the range of 193 to 198 °C. Further, in the data set on DLD-1, the “MTS CELL KILL DATA (% INHIBITION) DLD-1” value was “C (C = <50% INHIBITION)”. The “MTS CELL KILL DATA (% INHIBITION) Kato III” value with Kato III is given as “C (C = <50% INHIBITION)”. Also, the “MTS CELL KILL DATA (% INHIBITION) MDA-MB” value in the data set on MDA-MB is “C (C = <50% INHIBITION)”. Also, in the data set with NCI-H1299, the “MTS CELL KILL DATA (% INHIBITION) NCI-H1299” value was “C (C = <50% INHIBITION)”. Also, in the data set on PACA-2, the “MTS CELL KILL DATA (% INHIBITION) PACA-2” value is recorded as “C (C = <50% INHIBITION)”. For the same compound, in the data set with PC-3, the “MTS CELL KILL DATA (% INHIBITION) PC-3” value is “C (C = <50% INHIBITION)”.
